Source: patent US10278984B2, “Guanosine as an immune potentiator mediated through toll receptors” (Nitor Therapeutics, priority 2014, dated 2019)

Assays:
[1] = tested on: B16 tumors; assay: Mouse melanoma model, NTR001 and cyclophosphamide; format: in vivo, C57BL/6 mice; settings: cyclophosphamide 100 mg/kg IP single dose
Procedure: Method: Cancer cells were injected subcutaneously in right flank of each mouse, 1×10^4 cells in 0.1 ml PBS with 20% Matrigel. Treatment with the NTR001 was initiated on day 6 after injection of tumor cells. Tumor volume and survival were recorded every 3-4 days.

[2] = molecular target: T1, human TLR4 (Homo sapiens, UniProt O00206+Q9Y6Y9); assay: TLR ligand screening: NF-κB SEAP reporter, agonist; format: cell-based; settings: HEK293 cells expressing TLR4; guanosine 100 uM, NTR001 10 uM, inosine 100 uM; triplicate
T1 construct: expressed in transfected cells; host or cells: HEK293
T1 sequence (O00206 24-839): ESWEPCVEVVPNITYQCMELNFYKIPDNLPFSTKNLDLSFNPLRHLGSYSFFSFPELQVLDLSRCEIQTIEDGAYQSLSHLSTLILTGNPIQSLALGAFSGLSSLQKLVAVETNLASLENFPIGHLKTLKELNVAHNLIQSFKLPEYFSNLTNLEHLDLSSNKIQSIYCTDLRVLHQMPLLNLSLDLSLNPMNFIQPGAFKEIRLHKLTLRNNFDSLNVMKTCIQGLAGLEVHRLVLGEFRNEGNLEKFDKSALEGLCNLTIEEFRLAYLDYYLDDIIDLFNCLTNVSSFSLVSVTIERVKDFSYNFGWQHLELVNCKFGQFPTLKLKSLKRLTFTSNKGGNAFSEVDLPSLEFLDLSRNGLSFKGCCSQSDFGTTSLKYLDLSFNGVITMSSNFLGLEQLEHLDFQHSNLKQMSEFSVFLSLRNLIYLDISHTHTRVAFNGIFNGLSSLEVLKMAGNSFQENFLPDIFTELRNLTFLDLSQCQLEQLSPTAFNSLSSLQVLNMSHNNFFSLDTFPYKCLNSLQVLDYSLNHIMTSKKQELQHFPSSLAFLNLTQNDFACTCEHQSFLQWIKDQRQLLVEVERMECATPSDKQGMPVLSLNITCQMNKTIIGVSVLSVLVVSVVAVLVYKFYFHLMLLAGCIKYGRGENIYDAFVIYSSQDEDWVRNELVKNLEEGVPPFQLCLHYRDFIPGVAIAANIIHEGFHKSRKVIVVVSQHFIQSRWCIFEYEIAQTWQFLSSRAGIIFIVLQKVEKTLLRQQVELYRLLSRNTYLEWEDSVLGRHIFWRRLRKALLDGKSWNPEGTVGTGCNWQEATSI
T1 sequence (Q9Y6Y9 17-160 limits assumed): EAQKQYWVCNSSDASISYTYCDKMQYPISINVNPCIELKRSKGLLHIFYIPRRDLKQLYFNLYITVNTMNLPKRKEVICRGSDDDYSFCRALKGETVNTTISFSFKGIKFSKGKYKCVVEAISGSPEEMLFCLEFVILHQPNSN
Procedure: (§1) Method: TLR stimulation is tested by assessing NF-κB activation in HEK293 cells expressing a given TLR. The Secreted Embryonic Alkaline Phosphatase (SEAP) reporter is under the control of a promoter inducible by the transcription factor NF-κB. This reporter gene allows the monitoring of signaling through the TLR based on the activation of NF-κB. The activity of the compounds is tested on seven different human TLRs (TLR2, 3, 4, 5, 7, 8 and 9) as a potential agonist. The compounds are evaluated at one concentration and compared to control ligands. This step is performed in triplicate.

[3] = molecular target: T2, human TLR2 (Homo sapiens, UniProt O60603); assay: TLR ligand screening: NF-κB SEAP reporter, agonist; format: cell-based; settings: HEK293 cells expressing TLR2; guanosine 100 uM, NTR001 10 uM, inosine 100 uM; triplicate
T2 construct: expressed in transfected cells; host or cells: HEK293
T2 sequence (O60603 21-784): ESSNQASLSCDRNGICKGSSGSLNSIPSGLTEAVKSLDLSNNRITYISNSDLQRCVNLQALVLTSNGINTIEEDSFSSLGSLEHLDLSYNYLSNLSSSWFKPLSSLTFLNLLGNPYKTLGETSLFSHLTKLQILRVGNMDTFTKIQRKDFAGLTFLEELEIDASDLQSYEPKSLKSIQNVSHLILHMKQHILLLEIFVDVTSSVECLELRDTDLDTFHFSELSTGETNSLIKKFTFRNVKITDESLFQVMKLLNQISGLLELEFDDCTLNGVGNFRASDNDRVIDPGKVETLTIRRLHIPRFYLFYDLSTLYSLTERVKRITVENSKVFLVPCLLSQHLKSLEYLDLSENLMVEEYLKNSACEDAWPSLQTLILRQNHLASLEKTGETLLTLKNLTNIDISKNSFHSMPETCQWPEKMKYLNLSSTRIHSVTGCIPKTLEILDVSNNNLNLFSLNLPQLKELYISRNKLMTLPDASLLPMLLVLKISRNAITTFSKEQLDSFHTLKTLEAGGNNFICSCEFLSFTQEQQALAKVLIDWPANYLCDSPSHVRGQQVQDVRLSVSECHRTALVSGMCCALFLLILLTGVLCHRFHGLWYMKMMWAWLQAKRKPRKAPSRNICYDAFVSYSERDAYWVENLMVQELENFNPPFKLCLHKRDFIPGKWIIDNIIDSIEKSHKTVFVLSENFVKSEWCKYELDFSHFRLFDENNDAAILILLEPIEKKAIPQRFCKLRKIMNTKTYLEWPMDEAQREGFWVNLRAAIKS
Procedure: as §1

[4] = molecular target: T3, human TLR7 (Homo sapiens, UniProt Q9NYK1); assay: TLR ligand screening: NF-κB SEAP reporter, agonist; format: cell-based; settings: HEK293 cells expressing TLR7; NTR001 10 uM, inosine 100 uM
T3 construct: expressed in transfected cells; host or cells: HEK293
T3 sequence (Q9NYK1 27-1049): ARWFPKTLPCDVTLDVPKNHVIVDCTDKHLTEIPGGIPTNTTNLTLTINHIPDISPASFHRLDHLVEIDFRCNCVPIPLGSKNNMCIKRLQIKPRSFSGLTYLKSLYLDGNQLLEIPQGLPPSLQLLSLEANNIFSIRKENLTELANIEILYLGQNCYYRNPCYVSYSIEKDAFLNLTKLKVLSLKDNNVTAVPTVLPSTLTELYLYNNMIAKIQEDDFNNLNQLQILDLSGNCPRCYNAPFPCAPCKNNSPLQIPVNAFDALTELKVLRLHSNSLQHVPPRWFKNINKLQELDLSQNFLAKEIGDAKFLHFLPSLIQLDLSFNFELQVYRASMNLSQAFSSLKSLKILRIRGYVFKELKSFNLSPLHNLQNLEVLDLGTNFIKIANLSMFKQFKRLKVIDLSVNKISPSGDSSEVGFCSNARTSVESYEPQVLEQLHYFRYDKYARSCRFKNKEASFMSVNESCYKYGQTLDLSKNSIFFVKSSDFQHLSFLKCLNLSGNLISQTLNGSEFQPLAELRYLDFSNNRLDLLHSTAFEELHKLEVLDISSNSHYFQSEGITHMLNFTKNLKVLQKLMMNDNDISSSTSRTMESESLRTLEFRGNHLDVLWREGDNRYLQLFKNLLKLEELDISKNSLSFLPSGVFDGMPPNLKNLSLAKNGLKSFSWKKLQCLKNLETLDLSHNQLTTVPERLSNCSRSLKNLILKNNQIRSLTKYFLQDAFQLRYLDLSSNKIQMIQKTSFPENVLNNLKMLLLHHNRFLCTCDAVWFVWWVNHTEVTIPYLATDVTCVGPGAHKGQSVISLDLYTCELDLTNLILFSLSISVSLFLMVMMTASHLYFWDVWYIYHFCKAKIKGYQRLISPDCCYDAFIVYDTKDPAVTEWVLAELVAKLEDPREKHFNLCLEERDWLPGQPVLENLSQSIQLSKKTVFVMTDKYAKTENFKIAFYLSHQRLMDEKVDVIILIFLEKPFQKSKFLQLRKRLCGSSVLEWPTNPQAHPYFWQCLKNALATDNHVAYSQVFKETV
Procedure: as §1

[5] = molecular target: T4, human TLR8 (Homo sapiens, UniProt Q9NR97); assay: TLR ligand screening: NF-κB SEAP reporter, agonist; format: cell-based; settings: HEK293 cells expressing TLR8; NTR001 10 uM, inosine 100 uM
T4 construct: expressed in transfected cells; host or cells: HEK293
T4 sequence (Q9NR97 27-1041): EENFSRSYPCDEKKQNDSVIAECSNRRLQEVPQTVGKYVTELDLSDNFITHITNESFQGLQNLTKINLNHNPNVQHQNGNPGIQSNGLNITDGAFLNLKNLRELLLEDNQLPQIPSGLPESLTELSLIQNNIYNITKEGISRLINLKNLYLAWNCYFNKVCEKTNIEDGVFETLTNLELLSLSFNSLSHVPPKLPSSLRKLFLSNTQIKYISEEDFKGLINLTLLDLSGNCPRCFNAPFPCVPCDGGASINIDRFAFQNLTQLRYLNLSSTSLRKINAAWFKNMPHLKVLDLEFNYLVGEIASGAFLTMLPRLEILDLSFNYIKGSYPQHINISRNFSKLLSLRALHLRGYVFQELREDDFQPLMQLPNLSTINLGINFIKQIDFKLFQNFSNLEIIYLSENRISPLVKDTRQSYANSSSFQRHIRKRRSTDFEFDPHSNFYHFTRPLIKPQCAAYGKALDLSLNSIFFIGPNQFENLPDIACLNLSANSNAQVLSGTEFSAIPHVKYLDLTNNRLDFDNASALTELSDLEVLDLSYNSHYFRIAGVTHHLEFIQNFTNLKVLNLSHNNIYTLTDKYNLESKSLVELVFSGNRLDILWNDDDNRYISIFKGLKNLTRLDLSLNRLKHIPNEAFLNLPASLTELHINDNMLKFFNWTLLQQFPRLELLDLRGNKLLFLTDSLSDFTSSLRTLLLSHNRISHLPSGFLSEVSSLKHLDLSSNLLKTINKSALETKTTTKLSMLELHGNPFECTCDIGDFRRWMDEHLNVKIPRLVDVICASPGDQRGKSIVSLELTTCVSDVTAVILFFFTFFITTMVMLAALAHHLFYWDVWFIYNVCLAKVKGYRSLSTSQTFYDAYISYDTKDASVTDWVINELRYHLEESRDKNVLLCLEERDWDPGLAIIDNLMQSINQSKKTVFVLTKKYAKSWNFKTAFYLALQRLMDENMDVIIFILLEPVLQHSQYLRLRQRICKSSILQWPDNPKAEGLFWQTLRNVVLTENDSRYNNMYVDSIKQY
Procedure: as §1

[6] = molecular target: T5, human TLR9 (Homo sapiens, UniProt Q9NR96); assay: TLR ligand screening: NF-κB SEAP reporter, agonist; format: cell-based; settings: HEK293 cells expressing TLR9; NTR001 10 uM, inosine 100 uM
T5 construct: expressed in transfected cells; host or cells: HEK293
T5 sequence (Q9NR96 26-1032): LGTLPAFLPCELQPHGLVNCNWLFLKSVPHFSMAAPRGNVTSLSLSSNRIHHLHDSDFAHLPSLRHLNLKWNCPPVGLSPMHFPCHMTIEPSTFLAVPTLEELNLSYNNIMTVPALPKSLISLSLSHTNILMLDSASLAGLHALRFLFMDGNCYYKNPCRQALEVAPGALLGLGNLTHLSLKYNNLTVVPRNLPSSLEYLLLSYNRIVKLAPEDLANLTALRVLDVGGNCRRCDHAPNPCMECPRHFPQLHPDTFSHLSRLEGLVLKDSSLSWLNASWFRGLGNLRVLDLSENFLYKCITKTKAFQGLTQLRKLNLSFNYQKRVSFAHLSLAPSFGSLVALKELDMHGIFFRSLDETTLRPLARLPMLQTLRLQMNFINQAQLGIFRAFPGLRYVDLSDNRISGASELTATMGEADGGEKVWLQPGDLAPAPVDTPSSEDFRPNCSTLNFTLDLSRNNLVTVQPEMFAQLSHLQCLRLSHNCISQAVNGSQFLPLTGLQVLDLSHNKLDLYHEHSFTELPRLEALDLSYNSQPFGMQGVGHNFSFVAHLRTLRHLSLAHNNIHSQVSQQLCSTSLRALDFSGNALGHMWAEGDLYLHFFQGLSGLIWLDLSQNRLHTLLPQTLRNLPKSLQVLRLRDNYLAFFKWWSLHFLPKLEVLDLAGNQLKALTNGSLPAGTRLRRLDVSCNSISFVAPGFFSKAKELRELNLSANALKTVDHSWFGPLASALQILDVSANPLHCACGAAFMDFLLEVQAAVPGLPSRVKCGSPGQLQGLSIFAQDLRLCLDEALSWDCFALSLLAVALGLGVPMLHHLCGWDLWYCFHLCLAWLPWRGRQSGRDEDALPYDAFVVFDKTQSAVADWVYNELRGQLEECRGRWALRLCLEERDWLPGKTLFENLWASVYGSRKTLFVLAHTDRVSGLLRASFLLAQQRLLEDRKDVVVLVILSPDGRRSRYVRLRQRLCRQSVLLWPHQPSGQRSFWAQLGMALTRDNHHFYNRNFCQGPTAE
Procedure: as §1

[7] = molecular target: T6, human TLR5 (Homo sapiens, UniProt O60602); assay: TLR ligand screening: NF-κB SEAP reporter, agonist; format: cell-based; settings: HEK293 cells expressing TLR5; NTR001 10 uM, inosine 100 uM
T6 construct: expressed in transfected cells; host or cells: HEK293
T6 sequence (O60602 21-858): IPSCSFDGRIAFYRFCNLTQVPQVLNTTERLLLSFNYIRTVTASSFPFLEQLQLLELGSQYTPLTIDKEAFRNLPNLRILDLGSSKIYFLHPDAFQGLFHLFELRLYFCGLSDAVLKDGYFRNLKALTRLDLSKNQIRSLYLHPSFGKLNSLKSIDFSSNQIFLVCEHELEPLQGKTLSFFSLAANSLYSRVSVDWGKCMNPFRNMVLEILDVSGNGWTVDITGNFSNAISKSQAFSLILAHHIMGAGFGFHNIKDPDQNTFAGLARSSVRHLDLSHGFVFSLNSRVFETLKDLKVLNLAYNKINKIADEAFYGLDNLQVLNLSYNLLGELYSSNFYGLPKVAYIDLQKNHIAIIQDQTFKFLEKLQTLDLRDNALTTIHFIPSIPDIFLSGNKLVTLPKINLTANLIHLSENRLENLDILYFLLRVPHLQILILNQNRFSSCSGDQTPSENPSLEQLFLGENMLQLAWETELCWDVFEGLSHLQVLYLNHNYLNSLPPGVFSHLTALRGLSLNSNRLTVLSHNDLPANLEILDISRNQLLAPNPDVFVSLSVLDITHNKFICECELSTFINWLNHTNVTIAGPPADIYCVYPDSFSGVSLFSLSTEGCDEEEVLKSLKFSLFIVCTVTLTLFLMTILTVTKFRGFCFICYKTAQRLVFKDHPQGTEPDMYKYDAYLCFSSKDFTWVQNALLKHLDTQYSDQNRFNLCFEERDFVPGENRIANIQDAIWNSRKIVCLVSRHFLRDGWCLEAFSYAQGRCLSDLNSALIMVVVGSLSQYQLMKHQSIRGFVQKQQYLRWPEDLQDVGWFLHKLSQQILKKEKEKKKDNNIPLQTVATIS
Procedure: as §1

[8] = molecular target: T7, human TLR3 (Homo sapiens, UniProt O15455); assay: TLR ligand screening: NF-κB SEAP reporter, agonist; format: cell-based; settings: HEK293 cells expressing TLR3; NTR001 10 uM, inosine 100 uM
T7 construct: expressed in transfected cells; host or cells: HEK293
T7 sequence (O15455 24-904): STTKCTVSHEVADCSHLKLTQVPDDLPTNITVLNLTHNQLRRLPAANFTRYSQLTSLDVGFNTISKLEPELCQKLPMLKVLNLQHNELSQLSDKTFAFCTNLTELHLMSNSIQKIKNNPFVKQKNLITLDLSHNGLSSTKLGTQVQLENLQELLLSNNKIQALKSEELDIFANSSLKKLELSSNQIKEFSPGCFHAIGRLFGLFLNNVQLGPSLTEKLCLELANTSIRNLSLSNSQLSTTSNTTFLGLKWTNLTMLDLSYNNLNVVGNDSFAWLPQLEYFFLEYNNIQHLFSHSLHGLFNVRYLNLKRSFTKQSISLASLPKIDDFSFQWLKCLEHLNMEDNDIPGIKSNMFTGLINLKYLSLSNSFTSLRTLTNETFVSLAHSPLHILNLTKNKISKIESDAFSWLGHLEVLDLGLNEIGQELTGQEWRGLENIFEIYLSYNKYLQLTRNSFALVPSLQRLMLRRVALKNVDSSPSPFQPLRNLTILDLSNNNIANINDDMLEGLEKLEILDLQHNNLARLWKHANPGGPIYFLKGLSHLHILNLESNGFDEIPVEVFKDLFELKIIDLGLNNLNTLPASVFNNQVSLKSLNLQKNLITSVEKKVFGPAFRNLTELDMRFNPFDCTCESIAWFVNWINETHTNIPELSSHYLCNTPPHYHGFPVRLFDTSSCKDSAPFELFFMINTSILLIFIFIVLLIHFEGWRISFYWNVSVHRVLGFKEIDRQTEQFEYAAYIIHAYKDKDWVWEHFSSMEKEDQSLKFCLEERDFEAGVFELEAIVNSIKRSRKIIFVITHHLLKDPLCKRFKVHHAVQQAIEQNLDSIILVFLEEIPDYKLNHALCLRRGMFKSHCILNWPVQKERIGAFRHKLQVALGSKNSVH
Procedure: as §1

Compound	survival [1]	stimulatory effect on human TLR4 (NF-κB activation) [2]	stimulatory effect on human TLR2 (NF-κB activation) [3]	stimulatory effect on human TLR7 (NF-κB activation) [4]	stimulatory effect on human TLR8 (NF-κB activation) [5]	stimulatory effect on human TLR9 (NF-κB activation) [6]	stimulatory effect on human TLR5 (NF-κB activation) [7]	stimulatory effect on human TLR3 (NF-κB activation) [8]
O=P1(N(CCCl)CCCl)NCCCO1 (stereo not shown) [Cyclcophosphamide, Cyclophosphamide]	30%	–	–	–	–	–	–	–
Nc1nc2c(ncn2[C@@H]2O[C@H](CO)[C@@H](O)[C@H]2O)c(=O)[nH]1 [Guansoine, guanosine]	–	significant stimulatory effect	significant stimulatory effect	–	–	–	–	–
OC[C@H]1O[C@@H](n2cnc3c(O)ncnc32)[C@H](O)[C@@H]1O [Inosine]	–	do not directly exhibit a stimulatory effect	do not directly exhibit a stimulatory effect	do not directly exhibit a stimulatory effect	do not directly exhibit a stimulatory effect	do not directly exhibit a stimulatory effect	do not directly exhibit a stimulatory effect	do not directly exhibit a stimulatory effect
